From paper PMC3894558, “Chemical signatures and new drug targets for gametocytocidal drug development” (Scientific Reports, 2014)
Where a name gives a salt, the structure may show the parent alone. Read-outs that look alike come from different tables or passages of the source.

Tests used:
Assay type in all cases: cell-based, Plasmodium falciparum; call rule not given here
[1] = system: P. falciparum 3D7 gametocytes; test: alamarBlue gametocyte viability assay, strain 3D7; conditions: for IC50: 11 concentrations, 1:3 dilution; for Max Resp: DMSO set at 0%, 100 nM epoxomicin set at -100%
[2] = system: P. falciparum HB3 gametocytes; test: alamarBlue gametocyte viability assay, strain HB3
Protocol: Briefly, gametocyte cultures were set up at 0.1% parasitemia and on days 9–10 treated with 50 mM N-acetylglucosamine (NAG) to block further asexual growth. Stage III–V gametocytes were isolated by Percoll density gradient centrifugation on day 12 and returned to culture for 24 hrs before being used in the assay[9].
Briefly, 2.5 μl/well incomplete medium was dispensed into each well of 1,536-well plates using the Multidrop Combi followed by 23 nl compound transferring using the NX-TR Pintool (WAKO Scientific Solutions, San Diego, CA). Then, 2.5 μl/well of gametocytes was dispensed with a seeding density of 20,000 cells/well using the Multidrop Combi. The assay plates were incubated for 72 hrs at 37°C with 5% CO2.

[3] = system: P. falciparum Dd2 gametocytes; test: alamarBlue gametocyte viability assay, strain Dd2
[4] = Plasmodium falciparum, 3D7, strain profiling, three times, read-out: 3D7-gametocytes IC50
[5] = Plasmodium falciparum, HB3, read-out: HB3-gametocytes IC50
[6] = Plasmodium falciparum, DD2, read-out: Dd2-gametocytes IC50
[7] = strain profiling, three times, read-out: 3D7-gametocytes IC50
[8] = strain profiling, 11 concentrations, 1:3 dilution, three times, read-out: HB3-gametocytes IC50
[9] = strain profiling, 11 concentrations, 1:3 dilution, three times, read-out: Dd2-gametocytes IC50
[10] = Plasmodium falciparum, HB3, strain profiling, 11 concentrations, 1:3 dilution, three times, read-out: HB3-gametocytes IC50
[11] = Plasmodium falciparum, DD2, strain profiling, 11 concentrations, 1:3 dilution, three times, read-out: Dd2-gametocytes IC50
[12] = Malaria Box, stages III-V 3D7 gametocytes
[13] = Malaria Box, stages III-V 3D7 gametocytes, read-out: IC50

IC50 [1, 13]	IC50 [1, 12]	SMILES	Max Resp ([1]; Malaria Box)	Curve Class [1, 12]	other results
–	Inactive	CCOc1ccc(N2C(N)=NC(N)=NC2(C)C)cc1.Cl [MMV667486]	-4%	4	–
14.8 µM	–	CN1C=C(c2ccc3ccccc3n2)C(c2c[nH]c3ccccc23)c2ccccc21 (stereo not drawn) [MMV008160]	-87%	-2.1	–
4.18 µM	–	COc1ccc(NC(=O)C2c3ccccc3C(=O)N(CC(C)C)C2c2cccs2)cc1 (stereo not drawn) [MMV000662]	-81%	-1.1	–
23.5 µM	–	O=C(Nc1ccc(Cl)c(Cl)c1)Nc1ccc(Cl)c(Cl)c1 [MMV665852]	-88%	-2.1	–
–	Inactive	COc1cc(OC)cc(N2C(=O)N(Cc3ccc(C(C)(C)C)cc3)c3ccccc3S2(=O)=O)c1 [MMV008173]	0%	4	–
29.6 µM	–	COc1ccc2nc(N)nc(C)c2c1 [MMV665897]	-66%	-2.2	–
14.8 µM	–	O=C1c2ccc3c4c(ccc(c24)C(=O)N1CCCCO)C(=O)N(CCCCO)C3=O [MMV009085]	-71%	-2.2	–
–	Inactive	O=C(Nc1ccc(C23CC4CC(CC(c5ccccc5)(C4)C2)C3)cc1)c1cccs1 [MMV007574]	12%	4	–
–	Inactive	CC(=O)c1sc(NC(=O)Nc2ccc(C)cc2C)nc1C [MMV665894]	-23%	4	–
–	Inactive	COc1ccc(C(C)=O)cc1N1C(=O)C2C(C1=O)C1(c3ccccc3)C(=O)C2(c2ccccc2)C(c2ccc(C)cc2)=C1c1ccc(C)cc1 (stereo not drawn) [MMV007695]	17%	4	–
3.32 µM	–	CC(C)CNC(=O)c1c(N)n(CCc2ccccc2F)c2nc3ccccc3nc12 [MMV396744]	-70%	-1.2	–
–	Inactive	CCOC(=O)C1=C(c2ccccc2)N=c2sc(=Cc3cc(C)n(-c4ccc(F)cc4)c3C)c(=O)n2C1c1cccc(OC)c1OC (stereo not drawn) [MMV666601]	-26%	4	–
18.7 µM	–	c1ccc2cc3c(Nc4ccc(N5CCOCC5)cc4)ccnc3cc2c1 [MMV006861]	-63%	-2.2	–
–	Inactive	COc1ccc(C2=C(c3ccc(OC)cc3)C3(c4ccccc4)C(=O)C2(c2ccccc2)C2C(=O)N(c4ccc(C)cc4)C(=O)C23)cc1 (stereo not drawn) [MMV666101]	1%	4	–
13.2 µM	–	CCCCNc1nc(NC(C)(C)C)nc(NC(C)(C)C)n1 [MMV665864]	-93%	-2.1	–
9.35 µM	–	O=C(NC(c1ccccc1)c1ccc2cccnc2c1O)c1ccccc1 (stereo not drawn) [MMV666080]	-75%	-2.2	–
–	Inactive	O=C(NCc1ccco1)C1CCN(S(=O)(=O)c2ccc(Br)cc2)CC1 [MMV007430]	29%	4	–
9.35 µM	–	CCOc1c(Cl)cc(CNCC(O)c2ccccc2)cc1OC (stereo not drawn) [MMV396632]	-76%	-2.2	–
–	Inactive	O=C1c2ccccc2-c2nnc(-c3ccc(Br)cc3)cc21 [MMV665934]	17%	4	–
4.69 µM	–	CCn1nc(-c2ccc(C(=O)OC)cc2)nc2c(=O)n(C)c(=O)nc1-2 [MMV306025]	-98%	-1.1	–

The remaining lines, values behind:

SMILES	IC50 [1, 13]	IC50 [1, 12]	Max Resp ([1]; Malaria Box)	Curve Class [1, 12]	other results
CCN(CC)Cc1nccn1-c1ccc([N+](=O)[O-])cc1C(=O)c1ccccc1Cl [Nizofenone]	–	–	–	–	IC50 [1, 4]: 23.5 µM; IC50 [2, 5]: 14.8 µM; IC50 [3, 6]: 16.6 µM
CNc1ccc2oc(C[C@H]3O[C@@]4(CC[C@H]3C)O[C@H]([C@H](C)C(=O)c3ccc[nH]3)[C@H](C)C[C@H]4C)nc2c1C(=O)O [Calcimycin]	–	–	–	–	IC50 [1, 4]: 2.64 µM; IC50 [2, 5]: 5.9 µM; IC50 [3, 6]: 1.66 µM
Cc1cc(NC2CCCCC2)nc(-n2nc(C)cc2C)n1 [CyPPA]	–	–	–	–	IC50 [1, 7]: 0.469 µM; IC50 [2, 8]: 0.743 µM; IC50 [3, 9]: 0.59 µM
OC(c1cc(C(F)(F)F)nc2c(C(F)(F)F)cccc12)C1CCCCN1 (stereo not drawn) [Mefloquine hydrochloride]	–	–	–	–	IC50 [1, 4]: 0.074 µM; IC50 [2, 10]: 0.059 µM; IC50 [3, 11]: 0.053 µM
CCN(CC)C(=S)SSC(=S)N(CC)CC [Tetraethylthiuram disulfide]	–	–	–	–	IC50 [1, 7]: 0.096 µM; IC50 [2, 8]: 0.148 µM; IC50 [3, 9]: 0.296 µM
COc1ccc2nc3cc(Cl)ccc3c(Nc3cc(CN4CCCC4)c(O)c(CN4CCCC4)c3)c2n1 [Pyronaridine]	–	–	–	–	IC50 [1, 4]: 1.87 µM; IC50 [2, 10]: 2.64 µM; IC50 [3, 11]: 6.62 µM
c1ccc2c(c1)[I+]c1ccccc1-2 [Diphenyleneiodonium]	–	–	–	–	IC50 [1, 4]: 0.132 µM; IC50 [2, 10]: 0.296 µM; IC50 [3, 6]: 0.209 µM
CCOC(=O)c1cnc2ccc(OC)cc2c1Nc1ccc(N2CCN(C)CC2)cc1 [MMV000704]	23.5 µM	–	-69%	-2.2	–
O=C(NNc1cc(N2CCCC2)nc(N2CCCC2)n1)c1ccccc1 [MMV396770]	10.5 µM	–	-93%	-2.1	–
O=C1c2ccccc2C2=Nc3ccccc3SC(c3cccc(F)c3)C12 (stereo not drawn) [MMV006389]	–	Inactive	8%	4	–
CCOc1ccc2c(c1)CN(Cc1ccc(Cl)cc1)CO2 [MMV000443]	1.32 µM	–	-54%	-1.2	–
COc1ccc(C=C2SC(=N)N(c3ccccc3OC)C2=O)cc1 [MMV666691]	–	Inactive	-7%	4	–
CN(C)c1ccc(N2C(N)=NC(N)=NC2(C)C)cc1 [MMV667487]	–	Inactive	-4%	4	–
COc1ccc(-c2c(C)nn3c(N)c(C#N)cnc23)cc1OC [MMV396797]	6.62 µM	–	-90%	-1.1	–
COc1ccc2c(=O)cc(C(Cl)(Cl)Cl)oc2c1 [MMV665820]	3.72 µM	–	-101%	-1.1	–
CCOc1cc(Cl)c(C(C)NC(=O)c2ccccc2)cc1OCC (stereo not drawn) [MMV665800]	–	Inactive	-48%	-2.2	–
Cc1nc2ccccc2c(O)c1CC=C(Cl)Cl [MMV665994]	–	Inactive	5%	4	–
Cn1c(C(=O)c2cccc3ccccc23)nc2ccccc21 [MMV665824]	–	Inactive	-53%	-2.4	–
Clc1ccc2[nH]c3c(NCCCN4CCOCC4)ncnc3c2c1 [MMV006587]	–	Inactive	-49%	-2.2	–
O=C(Nc1ccccc1O)c1ccc(Oc2cccc(C(=O)Nc3ccccc3O)c2)cc1 [MMV665888]	14.8 µM	–	-76%	-2.2	–
CC(=O)Nc1nnc(SCc2c(C)cc(C(C)(C)C)cc2C)s1 [MMV020700]	–	Inactive	-2%	4	–
COc1ccc2c(c1OC)C(=O)N1c3ccccc3N=C(c3ccc(C)cc3)CC21 (stereo not drawn) [MMV000917]	29.6 µM	–	-63%	-2.2	–
CCOc1ccc(-n2cc(-c3ccccc3)c3c(SCc4cc(C)ccc4C)ncnc32)cc1 [MMV085471]	–	Inactive	1%	4	–
